Measured values from patent publication US12162850B2, “Formulations” (Betagenon AB, priority 2019, dated 2024).

Tests used:
[1] = Particle size analysis of dry-milled products (laser diffraction, Shimadzu SALD-2300); assay type: physicochemical
Protocol: Milling was performed for Examples 1a to 1c using an air jet mill (Equipment code: CP-AJM-01; Promas engineers) with the following parameters: Micronisation was repeated in all examples by performing the air jet milling for a second time using the same parameters. This allowed the particle size D90 to be reduced to less than 10 μm. [table] Four drops of Tween 20 were added to 25 mL of water and the mixture was sonicated for 3 minutes to form the dispersant solution. 0.05 g of milled material was transferred into a 250 mL glass beaker. 25 mL of the dispersant solution (Tween 20/water mixture) was added to the beaker with continuous swirling for 2 to 3 minutes. The suspension was transferred into the measuring unit and the particle size distribution measurements were conducted in triplicate.

[2] = Single dose oral pharmacokinetic studies in rabbits; assay type: in vivo, male New Zealand White rabbits; details: for AUCextrap / AUC(0-inf) / AUC(0-t) / Cmax / MRT last / Tmax / half-life: 90 mg/kg b.w. oral single dose
Protocol: The studies detailed below (and referred to as Examples 2 to 8) were conducted to provide comparative single dose oral pharmacokinetics data for Compound 1, as well as sodium and potassium salts of that compound, using non-coated and enteric-coated capsules in male New Zealand White rabbits.
Compound 1 was made using the process described in WO 2011/004162 and milled as described for Example 1c. The non-coated or enteric coated gelatin capsules were individually filled with 180 mg of dry-milled Compound 1 together with accompanying excipients as indicated. Both capsule types were filled with Compound 1 together with 1.8 mg of sodium docusate, 0.18 mg of PVP K30 and 9 mg of mannitol.
Similarly, Compound 2, non-coated or enteric coated gelatin capsules were individually filled with 180 mg of dry-milled Compound 2 (as obtained in Example 1f) together with 1.8 mg of sodium docusate, 0.18 mg of PVP K30 and 9 mg of mannitol.
For Compound 3, non-coated or enteric coated gelatin capsules were individually filled with 90 mg of dry-milled Compound 3 (as obtained in Example 1i) together with 0.90 mg of sodium docusate, 0.09 mg of PVP K30 and 4.50 mg of mannitol.
40 mL of the 2% w/v methyl cellulose solution was added to a 250 mL conical flask together with 10 g of 2 mm glass beads, and vigorously stirred. Compound 1 (720 mg) was slowly added to the solution and the mixture was with continuously stirred for 1 h. The homogenate was transferred to separate flask and its pH recorded. The suspension formulation was prepared before administration to the animals.
Adult healthy male New Zealand white rabbits aged approximately 2 to 3 months old were used for experimentation after 7 days of acclimatization.
To dose the filled capsules, a soft plastic dosing tube was used. The filled capsule was inserted into the dosing tube so that the short end of the capsule protrudes slightly from the tip of the tube. The tip of the capsule was dipped in mineral oil to aid swallowing.
To dose the suspension, an infant feeding tube was used. The feeding tube was inserted through the mouth of the rabbit to the oesophagus and the stomach, and ascertained that it has not been placed in the trachea before dosing to the animals. The suspension of the Compound 1 was administered through the feeding tube. After the administration of the suspension, drinking water of approximately 2.0-2.5 mL was administered to flush out the contents in the feeding tube.
The animals were restrained in a rabbit restrainer and blood samples (400-500 μL/time point) were collected via the central ear artery at 0.16, 0.25, 0.50, 1.0, 2.0, 4.0, 6.0, 8.0, 24.0, 48.0 and 72 hours post-dosing. Collected blood specimens were centrifuged at 4000 or 6000 rpm, 4° C. for 10 minutes and plasma samples were separated and stored at −80° C. until analysis.
Concentrations of the analyte of Compound 1 in New Zealand white rabbits was determined using an API 3200 Q-trap LC-MS/MS system.
Chromatographic separation was achieved on Zorbax C18, 50×4.6 mm, 5 μm column with methanol-0.1% formic acid as mobile phase with gradient elution. The flow rate was set at 1.0 mL min^−1. Detection was accomplished by a triple-quadrupole tandem mass spectrometer in multiple-reaction monitoring (MRM) scanning via electrospray ionization source, applied in the positive mode. The optimised mass transition ion-pairs for quantitation were m/z 379.999→125.000 for the compound 1 and m/z 376.165→165.00 for the ISD (Haloperidol). Calibration plots were linear over the range of 11.062 to 20594.820 ng/mL.
The data of plasma concentration to respective time points for the analyte Compound 1 were used for the pharmacokinetic analysis. Pharmacokinetic analysis was performed using non-compartmental analysis (NCA) module of Phoenix WinNonlin 6.3 software to determine the following pharmacokinetic parameters: • Cmax • Tmax • AUC0-t • AUC0-∞ • T1/2 • MRT […]

[3] = after 1st milling (air jet mill)
[4] = after 2nd milling (air jet mill)
[5] = male, New Zealand White, rabbit, plasma, po, 90 mg/kg, enteric coated capsule, 90 mg/kg b.w. oral
[6] = male, New Zealand White, rabbit, plasma, po, 90 mg/kg, non-coated capsule, 90 mg/kg b.w. oral
[7] = male, New Zealand White, rabbit, plasma, po, 90 mg/kg, standard suspension, 90 mg/kg b.w. oral
[8] = male, New Zealand White, rabbit, plasma, po, 90 mg/kg, enteric coated capsule, rabbit plasma (Examples 5, 6, 7)
[9] = male, New Zealand White, rabbit, plasma, po, 90 mg/kg, non-coated capsule, rabbit plasma (Examples 2, 3, 4)
[10] = male, New Zealand White, rabbit, plasma, po, 90 mg/kg, standard suspension (2% w/v methylcellulose), rabbit plasma (Example 8)

O=C(Nc1nc(=O)n(Cc2ccc(Cl)cc2)s1)c1ccc(Cl)cc1 [Compound 1, 4-Chloro-N-[2-[(4-chlorophenyl)methyl]-3-oxo-1,2,4-thiadiazol-5-yl]benzamide]
Particle size distribution D10 [1, 3]: 1.8 μm | Particle size distribution D50 [1, 3]: 5.0 μm | Particle size distribution D90 [1, 3]: 11.4 μm | Particle size distribution D100 [1, 3]: 33.7 μm | Particle size distribution D10 [1, 4]: 1.2 μm | Particle size distribution D50 [1, 4]: 3.7 μm | Particle size distribution D90 [1, 4]: 8.3 μm | Particle size distribution D100 [1, 4]: 21.4 μm | Particle size distribution D10 ([1]; before milling): 13.5 μm | Particle size distribution D50 ([1]; before milling): 28.0 μm | Particle size distribution D90 ([1]; before milling): 55.2 μm | Particle size distribution D100 ([1]; before milling): 187.0 μm | Plasma concentration, mean ([2]; 0.16 h, non-coated capsule, 90 mg/kg b.w. oral, rabbit): 0.000 ng/mL | Plasma concentration, mean ([2]; 0.25 h, non-coated capsule, 90 mg/kg b.w. oral, rabbit): 0.000 ng/mL | Plasma concentration, mean ([2]; 0.50 h, non-coated capsule, 90 mg/kg b.w. oral, rabbit): 50.474 ng/mL | Plasma concentration, mean ([2]; 1.00 h, enteric coated capsule, 90 mg/kg b.w. oral, rabbit): 0.000 ng/mL | Plasma concentration, mean ([2]; 1.00 h, non-coated capsule, 90 mg/kg b.w. oral, rabbit): 386.171 ng/mL | Plasma concentration, mean ([2]; 2.00 h, enteric coated capsule, 90 mg/kg b.w. oral, rabbit): 5.857 ng/mL | Plasma concentration, mean ([2]; 2.00 h, non-coated capsule, 90 mg/kg b.w. oral, rabbit): 1530.898 ng/mL | Plasma concentration, mean ([2]; 4.00 h, enteric coated capsule, 90 mg/kg b.w. oral, rabbit): 206.003 ng/mL | Plasma concentration, mean ([2]; 6.00 h, enteric coated capsule, 90 mg/kg b.w. oral, rabbit): 307.917 ng/mL | Plasma concentration, mean ([2]; 6.00 h, non-coated capsule, 90 mg/kg b.w. oral, rabbit): 25336.370 ng/mL | Plasma concentration, mean ([2]; 8.00 h, enteric coated capsule, 90 mg/kg b.w. oral, rabbit): 1505.092 ng/mL | Plasma concentration, mean ([2]; 24.00 h, enteric coated capsule, 90 mg/kg b.w. oral, rabbit): 45705.076 ng/mL | Plasma concentration, mean ([2]; 72.00 h, non-coated capsule, 90 mg/kg b.w. oral, rabbit): 35657.688 ng/mL | AUCextrap ([2]; enteric coated capsule, rabbit plasma (Examples 5, 6, 7)): 82.44 ± 9.84% | concentration at 0 h [2, 5]: 0 ng/mL | concentration at 0 h [2, 6]: 0 ng/mL | concentration at 0 h [2, 7]: 0 ng/mL | concentration at 0.16 h ([2]; male, New Zealand White, rabbit, plasma, po, 90 mg/kg, 0.16 h, enteric coated capsule, 90 mg/kg b.w. oral): 0 ng/mL | concentration at 0.16 h ([2]; male, New Zealand White, rabbit, plasma, po, 90 mg/kg, 0.16 h, standard suspension, 90 mg/kg b.w. oral): 1210 ng/mL | concentration at 0.25 h ([2]; male, New Zealand White, rabbit, plasma, po, 90 mg/kg, 0.25 h, enteric coated capsule, 90 mg/kg b.w. oral): 0 ng/mL | concentration at 0.25 h ([2]; male, New Zealand White, rabbit, plasma, po, 90 mg/kg, 0.25 h, standard suspension, 90 mg/kg b.w. oral): 4420 ng/mL | concentration at 0.5 h ([2]; male, New Zealand White, rabbit, plasma, po, 90 mg/kg, 0.50 h, enteric coated capsule, 90 mg/kg b.w. oral): 0 ng/mL | concentration at 0.5 h ([2]; male, New Zealand White, rabbit, plasma, po, 90 mg/kg, 0.50 h, standard suspension, 90 mg/kg b.w. oral): 7250 ng/mL | concentration at 1 h ([2]; male, New Zealand White, rabbit, plasma, po, 90 mg/kg, 1.00 h, standard suspension, 90 mg/kg b.w. oral): 9390 ng/mL | concentration at 2 h ([2]; male, New Zealand White, rabbit, plasma, po, 90 mg/kg, 2.00 h, standard suspension, 90 mg/kg b.w. oral): 10100 ng/mL | concentration at 4 h ([2]; male, New Zealand White, rabbit, plasma, po, 90 mg/kg, 4.00 h, non-coated capsule, 90 mg/kg b.w. oral): 13400 ng/mL | concentration at 4 h ([2]; male, New Zealand White, rabbit, plasma, po, 90 mg/kg, 4.00 h, standard suspension, 90 mg/kg b.w. oral): 11600 ng/mL | concentration at 6 h ([2]; male, New Zealand White, rabbit, plasma, po, 90 mg/kg, 6.00 h, standard suspension, 90 mg/kg b.w. oral): 139000 ng/mL | concentration at 8 h ([2]; male, New Zealand White, rabbit, plasma, po, 90 mg/kg, 8.00 h, non-coated capsule, 90 mg/kg b.w. oral): 39200 ng/mL | concentration at 8 h ([2]; male, New Zealand White, rabbit, plasma, po, 90 mg/kg, 8.00 h, standard suspension, 90 mg/kg b.w. oral): 28700 ng/mL | concentration at 24 h ([2]; male, New Zealand White, rabbit, plasma, po, 90 mg/kg, 24.00 h, non-coated capsule, 90 mg/kg b.w. oral): 63600 ng/mL | concentration at 24 h ([2]; male, New Zealand White, rabbit, plasma, po, 90 mg/kg, 24.00 h, standard suspension, 90 mg/kg b.w. oral): 18400 ng/mL | concentration at 48 h [2, 5]: 59700 ng/mL | concentration at 48 h [2, 6]: 54800 ng/mL | concentration at 48 h [2, 7]: 8830 ng/mL | concentration at 72 h ([2]; male, New Zealand White, rabbit, plasma, po, 90 mg/kg, 72.00 h, enteric coated capsule, 90 mg/kg b.w. oral): 52300 ng/mL | concentration at 72 h ([2]; male, New Zealand White, rabbit, plasma, po, 90 mg/kg, 72.00 h, standard suspension, 90 mg/kg b.w. oral): 3030 ng/mL | AUC(0-inf) [2, 8]: 18600 ± 12800 µg·h/mL | AUC(0-t) [2, 8]: 2990 ± 666 µg·h/mL | Cmax [2, 8]: 60800 ± 15700 ng/mL | MRT last [2, 8]: 45.2 ± 2.54 h | Tmax [2, 8]: 40 ± 13.9 h | half-life [2, 8]: 252 ± 133 h | AUC(0-inf) [2, 9]: 7390 ± 3870 µg·h/mL | AUC(0-t) [2, 9]: 3450 ± 405 µg·h/mL | Cmax [2, 9]: 63700 ± 3790 ng/mL | MRT last [2, 9]: 36.9 ± 2.56 h | Tmax [2, 9]: 32 ± 13.9 h | half-life [2, 9]: 68.2 ± 43 h | AUC(0-inf) [2, 10]: 1120 µg·h/mL | AUC(0-t) [2, 10]: 952 ± 175 µg·h/mL | Cmax [2, 10]: 31200 ± 11500 ng/mL | MRT last [2, 10]: 25 ± 5 h | Tmax [2, 10]: 19 ± 9 h | half-life [2, 10]: 36 ± 8 h | AUCextrap ([2]; non-coated capsule, rabbit plasma (Examples 2, 3, 4)): 46.71 ± 19.06% | AUCextrap ([2]; standard suspension (2% w/v methylcellulose), rabbit plasma (Example 8)): 14 ± 9%
